According to ChEMBL document CHEMBL1781976, “Synthesis of 7,9-diazabicyclo[4.2.2]decanes as conformationally restricted κ receptor agonists: fine tuning of the dihedral angle of the ethylenediamine pharmacophore” (Eur J Med Chem, 2011):

What was measured:
[1] = target: Kappa-type opioid receptor (Homo sapiens, UniProt P41145); experiment: Displacement of [3H]U69593 from kappa opioid receptor
[2] = target: Kappa-type opioid receptor (Cavia porcellus, UniProt P41144); experiment: Displacement of [3H]U69593 from kappa opioid receptor in guinea pig brain membranes after 150 mins by scintillation counting; format: cell membranes, Membrane
Kappa-type opioid receptor (Cavia porcellus, UniProt P41144), sequence (P41144 whole entry): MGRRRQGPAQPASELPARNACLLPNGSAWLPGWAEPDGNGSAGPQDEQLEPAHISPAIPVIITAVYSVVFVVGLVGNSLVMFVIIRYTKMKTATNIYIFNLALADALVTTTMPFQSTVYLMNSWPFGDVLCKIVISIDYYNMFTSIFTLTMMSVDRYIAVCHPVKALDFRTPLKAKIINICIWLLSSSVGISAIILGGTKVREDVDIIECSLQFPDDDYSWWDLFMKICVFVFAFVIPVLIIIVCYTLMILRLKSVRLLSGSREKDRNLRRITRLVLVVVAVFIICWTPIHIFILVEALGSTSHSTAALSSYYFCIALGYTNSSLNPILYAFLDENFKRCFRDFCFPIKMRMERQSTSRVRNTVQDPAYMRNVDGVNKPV

[3] = target: Mu-type opioid receptor (Cavia porcellus, UniProt P97266); experiment: Displacement of [3H]DAMGO from mu opioid receptor in guinea pig brain membranes; format: cell membranes, Membrane
Mu-type opioid receptor, sequence (P97266 whole entry): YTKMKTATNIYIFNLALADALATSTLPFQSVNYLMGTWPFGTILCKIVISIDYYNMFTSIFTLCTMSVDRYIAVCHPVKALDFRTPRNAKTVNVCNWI

[4] = target: Delta-type opioid receptor (Rattus norvegicus, UniProt P33533); experiment: Displacement of [3H]DPDPE from delta opioid receptor in rat brain membranes; format: cell membranes
Delta-type opioid receptor, sequence (P33533 whole entry): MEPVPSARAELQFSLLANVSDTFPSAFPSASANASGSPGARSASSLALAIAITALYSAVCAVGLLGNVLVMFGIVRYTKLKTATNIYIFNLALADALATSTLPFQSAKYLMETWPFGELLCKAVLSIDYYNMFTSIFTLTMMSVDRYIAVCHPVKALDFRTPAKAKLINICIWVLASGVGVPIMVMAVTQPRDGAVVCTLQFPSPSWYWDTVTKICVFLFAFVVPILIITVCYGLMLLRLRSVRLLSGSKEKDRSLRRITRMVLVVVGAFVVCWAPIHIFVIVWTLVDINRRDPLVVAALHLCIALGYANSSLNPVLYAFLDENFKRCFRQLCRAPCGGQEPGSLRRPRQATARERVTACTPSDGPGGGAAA

[5] = target: Sigma non-opioid intracellular receptor 1 (Cavia porcellus, UniProt Q60492); experiment: Displacement of [3H]-(+)-pentazocine from sigma 1 receptor in guinea pig brain membranes; format: cell membranes, Membrane
Sigma non-opioid intracellular receptor 1, sequence (Q60492 whole entry): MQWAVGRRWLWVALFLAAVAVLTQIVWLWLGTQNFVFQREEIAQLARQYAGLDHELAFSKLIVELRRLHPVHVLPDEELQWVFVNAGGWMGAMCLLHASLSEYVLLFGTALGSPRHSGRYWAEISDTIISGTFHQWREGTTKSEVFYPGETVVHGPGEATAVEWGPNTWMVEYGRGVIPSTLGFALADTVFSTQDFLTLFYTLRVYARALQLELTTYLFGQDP

[6] = Displacement of [3H]di-o-toylguanidine from sigma 2 receptor in rat liver homogenates; format: tissue-based

Kappa-type opioid receptor (Homo sapiens, UniProt P41145), sequence (P41145 whole entry): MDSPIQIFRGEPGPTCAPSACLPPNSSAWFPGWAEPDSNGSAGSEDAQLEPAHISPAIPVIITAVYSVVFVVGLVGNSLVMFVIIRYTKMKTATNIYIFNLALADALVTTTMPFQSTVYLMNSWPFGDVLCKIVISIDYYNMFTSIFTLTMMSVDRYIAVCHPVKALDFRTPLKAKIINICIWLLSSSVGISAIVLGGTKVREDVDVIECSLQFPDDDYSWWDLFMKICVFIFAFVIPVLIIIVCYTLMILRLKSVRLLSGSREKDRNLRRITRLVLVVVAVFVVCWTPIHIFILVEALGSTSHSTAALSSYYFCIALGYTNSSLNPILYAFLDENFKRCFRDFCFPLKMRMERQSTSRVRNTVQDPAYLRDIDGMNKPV

Compound	Ki [1] [µM]	Ki [2] [µM]	Ki [3] [µM]	Ki [4] [µM]	Ki [5] [µM]	Ki [6] [µM]
COC(=O)N1CCN(C(=O)Cc2ccc(Cl)c(Cl)c2)[C@@H]([C@@H](C)N2CCCC2)C1	0.00031					
COC(=O)N1CCN(C(=O)Cc2ccc(Cl)c(Cl)c2)[C@H](CN2CCCC2)C1	0.00045					
COC(=O)N1CC2C(N3CCCC3)CCCC1CN2C(=O)Cc1ccc(Cl)c(Cl)c1 (racemic)		0.333	> 1	> 1	0.452	
COc1ccc(CN2CC3CCCC(N4CCCC4)C2CN3Cc2ccccc2)cc1 (racemic)					0.531	> 1
O=C(Cc1ccc(Cl)c(Cl)c1)N1CC2CCCC(N3CCCC3)C1CN2Cc1ccccc1 (racemic; 14)		0.378	> 1	0.15	0.221	> 1
O=C(Cc1ccc(Cl)c(Cl)c1)N1CC2CCCC(N3CCCC3)C1CN2Cc1ccccc1 (racemic; 26)		0.314	> 1	0.324	0.175	
O=C(Cc1ccc(Cl)c(Cl)c1)N1CCN2CC[C@@H](N3CCCC3)[C@H]1C2 (relative stereo)		> 1				
O=C(Cc1ccc(Cl)c(Cl)c1)N1CCN2CC[C@H](N3CCCC3)[C@H]1C2 (relative stereo)		0.073				
COC(=O)N1CC2C(N3CCCC3)CCCC1CN2C(=O)Cc1ccc(Cl)c(Cl)c1 (stereo in doubt; 9)		0.065	> 1	> 1	> 1	> 1
COc1ccc(CN2CC3CCCC(N4CCCC4)C2CN3Cc2ccccc2)cc1 (stereo in doubt; 25)					0.238	0.203
CC(C)=CCN1CC[C@]2(C)c3cc(O)ccc3C[C@H]1[C@H]2C [(+)-PENTAZOCINE]						0.058
